Bridges are numbered along the chain shown (N, C = ends). Where no end group is shown, it is not given here.
Experiments:
[1] = tested on: HT-1080 human fibrosarcoma cells; experiment: HT-1080 cell adhesion assay (crystal violet, absorbance at 570 nm); type: cell-based; details: for HT-1080 adhesion compared with linear BSP (SEQ ID NO:4)-conjugated (meth)acrylate: cyclic peptide conjugated to Formulation SA1, normalized to fibronectin (FN, 5 mg/mL)-coated surfaces
Description: To evaluate ability of a polypeptide conjugated to embodiments of swellable (meth)acrylate using these conjugation methods to enable cell adhesion and proliferation, peptides Ac-LysTyrGlyArgLysArgLeuGlnValGlnLeuS erIleArgThr-NH2 (SE Q ID NO:22) (AG-73, an adhesive peptide) and Ac-GlyArgGlyGluSerProIleTyrLys-NH2 (SEQ ID NO:30) (RGE, a negative control) were conjugated to swellable (meth)acrylate (as described above) and adhesion of HT-1080 human fibrosarcoma cells to the swellable (meth)acrylate was evaluated. Briefly, Laminin (5 μg/mL, Sigma-Aldrich) control wells were coated for 1 hour at room temperature. All wells were blocked with 1% bovine serum albumin (BSA) in phosphate buffered saline (PBS) for 1 hour at 37° C. Wells were washed briefly with PBS before incubation with 0.1% BSA in Iscove's Modified Dulbecco's Medium (IMDM) prior to cell seeding. HT-1080 human fibrosarcoma cells (ATCC number: CCL-121) were grown in IMDM (Lonza) with 10% FBS (Lonza) to 90% confluency at standard cell culture conditions. Cells were trypsinized and allowed to recover in IMDM with 10% FBS for 30 minutes at 37° C., 5% CO2. After recovery, cells were washed and resuspended in 0.1% BSA in IMDM and seeded on peptide-conjugated plates at a density of 30,000 cells/well. Cell adhesion was allowed to take place for 1 hour at standard cell culture conditions. The media was aspirated from the wells and adherent cells were fixed and stained in 50 μL of 0.2% crystal violet in 20% methanol for 8 minutes at room temperature. Cellular absorption of crystal violet was quantified through addition of 1% SDS in H2O for 5 minutes prior to absorbance measurement at 570 nm. For this assay, after polypeptide conjugation the remaining NHS esters on the swellable (meth)acrylate were reacted with ethanolamine or aminopropyl morpholine to reduce uptake of crystal violet dye by the swellable (meth)acrylate.

[2] = tested on: H7 hES cells; experiment: AttoPhos screening (alkaline phosphatase activity) of undifferentiated hES cells in chemically defined medium; type: cell-based, human; details: for support of culture of undifferentiated stem cells (AttoPhos): peptides conjugated to Formulation SA1 at 10, 100 and 1000 μM input concentration
Description: All experimental plates were sterilized prior to the cell seeding by spraying with 70% ETOH, drying in a laminar hood, and washing five times with 200 μl Dulbecco's Phosphate Buffered Saline (DPBS). H7 hES cells were seeded on peptide conjugated swellable (meth)acrylate (SAP) surfaces at a density of 35,000 cells/well (96-well plate) in 100 μl of chemically defined medium Xvivo10 (Lonza, Cat #04-743Q) and supplemented with 80 ng/ml basic fibroblast growth factor (bFGF) (R&D systems, Cat #234-FSE/CF) and 0.5 ng/ml transforming growth factor-β1 (TGFβ1) (R&D systems, Cat. #240B). MATRIGEL™ (MG)-coated wells were used as positive control for adhesion of undifferentiated hES cells. Cells were cultured for 48 hrs under standard cell culture conditions (37° C. with 5% CO2) and then were fixed and processed for AttoPhos assay to measure alkaline phosphatase activity, which is a known marker for undifferentiated hES cells, and/or BCIP staining as described below.
AttoPhos screening was performed as follows. Briefly, at the end of incubation time, cells were rinsed with 150 μl of DPBS and fixed with 4% paraformaldehyde for 10 min at room temperature (70 μl/well of 96-well plate). The cells were washed once with 150 μl of DPBS, and treated for 10 min with 100 μl of AttoPhos fluorescent substrate for alkaline phosphatase (Promega) (diluted 1:3 in DPBS) protected from light. AttoPhos fluorescent intensity at 485/535 nm was obtained using Victor 3 microplate reader (Perklin Elmer). AttoPhos fluorescent intensity for experimental surfaces was expressed as % of MATRIGEL™ control.

[3] = tested on: HepG2/C3A cells; experiment: Serum-free attachment of HepG2/C3A cells (LDH activity, absorbance at 490 nm); type: cell-based; details: peptide conjugated to SA layer, 24 hours
Description: HepG2/C3A cells (ATCC # CRL-10741) were plated at 25,000 cells per well in 100 μl media in triplicate on SAP surfaces, BD BioCoat™ Collagen I and Corning CellBind® treated Topas™ in a 96 well format and cultured at in Eagle's Minimum Essential Medium (ATCC #30-2003) supplemented with 1% penicillin-streptomycin (Invitrogen #15140-155). The culture medium was not supplemented with fetal bovine serum (as recommended by the cell line supplier) nor was the SAP surface exposed to fetal bovine serum. The culture plates were incubated at 37° C., in 5% CO2 and 95% relative humidity for 24 hours. The cell culture plates having the SA surfaces were prepared as described in EXAMPLE 1. Peptides were conjugated according to EXAMPLE 2. […] The line in FIG. 24 indicates 75% performance of cells on Collagen 1.
The attachment of the HepG2/C3A cells was determined using a Cytotoxicity Assay (Promega CytoTox 96® Non-Radioactive Cytotoxicity Assay # G1780) which estimates the number of living cells attached to the culture surfaces. After 24 hours of in culture, the cells were vigorously washed with phosphate buffer, lysed via the introduction of the lysis buffer solution and incubation at 37 C for 1 hour to release lactate dehydrogenase (LDH) enzyme from the viable cells that remain attached to the culture surfaces. The biological activity of the released lactate dehydrogenase enzyme was measured via absorbance at 490 nm using a plate reader (Victor 3 from PerkinElmer).

[4] = peptide conjugated to swellable (meth)acrylate, 1 hour adhesion, OD570 nm normalized to Laminin

In the case of “Ac-GlyArgGlyGluSerProIleTyrLys-NH2 (Ac-GRGESPIYK-NH2) [reference compound]”, the “adhesion of HT-1080 cells” value [1, 4] is reported as “did not adhere”.

“Ac-LysGlyGlyAsnGlyGluProArgGlyAspThrTyrArgAlaTyr-NH2 (Ac-KGGNGEPRGDTYRAY-NH2) [SEQ ID NO:4]” was tested, and the “AttoPhos fluorescence intensity (FI) compared to MATRIGEL control” value ([2]; SEQ ID NO:4 conjugated to Formulation SA1A using 1000 μM solution, Xvivo10 + bFGF + TGFβ1, 48 hrs) was 56-60%, the “adhesion and growth of undifferentiated stem cells versus peptide concentration (AttoPhos)” value ([2]; peptide at 1, 10, 100 and 1000 μM, formulation SA1A surfaces) was “peptide concentration dependent” and the “support of culture of undifferentiated stem cells (AttoPhos)” value [2] was “appeared to better support the culture of undifferentiated stem cells”.

“Ac-LysGlyGlyCys^4AsnGlyGluProArgGlyAspThrTyrArgAlaTyrCys^17-NH2 (Ac-KGGCNGEPRGDTYRAYC-NH2; disulfide 4-17; SMILES CC(=O)N[C@@H](CCCCN)C(=O)NCC(=O)NCC(=O)N[C@H]1CSSC[C@@H](C(N)=O)NC(=O)[C@H](Cc2ccc(O)cc2)NC(=O)[C@H](C)NC(=O)[C@H](CCCNC(=N)N)NC(=O)[C@H](Cc2ccc(O)cc2)NC(=O)[C@H]([C@@H](C)O)NC(=O)[C@H](CC(=O)O)NC(=O)CNC(=O)[C@H](CCCNC(=N)N)NC(=O)[C@@H]2CCCN2C(=O)[C@H](CCC(=O)O)NC(=O)CNC(=O)[C@H](CC(N)=O)NC1=O) [SEQ ID NO:8]” was tested, and the “HT-1080 adhesion compared with linear BSP (SEQ ID NO:4)-conjugated (meth)acrylate” value [1] was “supported HT-1080 adhesion similar to”.

With “Ac-LysGlyGlyCys^4GluProArgGlyAspThrTyrArgCys^17-NH2 (Ac-KGGCEPRGDTYRC-NH2; disulfide 4-13; SMILES CC(=O)N[C@@H](CCCCN)C(=O)NCC(=O)NCC(=O)N[C@H]1CSSC[C@@H](C(N)=O)NC(=O)[C@H](CCCNC(=N)N)NC(=O)[C@H](Cc2ccc(O)cc2)NC(=O)[C@H]([C@@H](C)O)NC(=O)[C@H](CC(=O)O)NC(=O)CNC(=O)[C@H](CCCNC(=N)N)NC(=O)[C@@H]2CCCN2C(=O)[C@H](CCC(=O)O)NC1=O) [SEQ ID NO:9]” the “HT-1080 adhesion compared with linear BSP (SEQ ID NO:4)-conjugated (meth)acrylate” value [1] was “supported HT-1080 adhesion similar to”.

In the case of “Ac-LysGlyGlyLys^4AsnGlyGluProArgGlyAspThrTyrArgAlaTyrAsp^17-NH2 (Ac-KGGKNGEPRGDTYRAYD-NH2; lactam 4-17; SMILES CC(=O)N[C@@H](CCCCN)C(=O)NCC(=O)NCC(=O)N[C@H]1CCCCNC(=O)C[C@@H](C(N)=O)NC(=O)[C@H](Cc2ccc(O)cc2)NC(=O)[C@H](C)NC(=O)[C@H](CCCNC(=N)N)NC(=O)[C@H](Cc2ccc(O)cc2)NC(=O)[C@H]([C@@H](C)O)NC(=O)[C@H](CC(=O)O)NC(=O)CNC(=O)[C@H](CCCNC(=N)N)NC(=O)[C@@H]2CCCN2C(=O)[C@H](CCC(=O)O)NC(=O)CNC(=O)[C@H](CC(N)=O)NC1=O) [SEQ ID NO:6]”, the “HT-1080 adhesion compared with linear BSP (SEQ ID NO:4)-conjugated (meth)acrylate” value [1] is reported as “supported HT-1080 adhesion similarly to linear BSP-conjugated (meth)acrylates”.

In the case of “Ac-LysGlyGlyLys^4GluProArgGlyAspThrTyrArgAsp^13-NH2 (Ac-KGGKEPRGDTYRD-NH2; lactam 4-13; SMILES CC(=O)N[C@@H](CCCCN)C(=O)NCC(=O)NCC(=O)N[C@H]1CCCCNC(=O)C[C@@H](C(N)=O)NC(=O)[C@H](CCCNC(=N)N)NC(=O)[C@H](Cc2ccc(O)cc2)NC(=O)[C@H]([C@@H](C)O)NC(=O)[C@H](CC(=O)O)NC(=O)CNC(=O)[C@H](CCCNC(=N)N)NC(=O)[C@@H]2CCCN2C(=O)[C@H](CCC(=O)O)NC1=O) [SEQ ID NO:7]”, the “HT-1080 adhesion compared with linear BSP (SEQ ID NO:4)-conjugated (meth)acrylate” value [1] is reported as “supported HT-1080 adhesion similarly to linear BSP-conjugated (meth)acrylates”.

With “Ac-LysTyrGlyArgLysArgLeuGlnValGlnLeuSerIleArgThr-NH2 (Ac-KYGRKRLQVQLSIRT-NH2) [AG-73]” the “adhesion of HT-1080 cells” value ([1]; 1 μM peptide solution used for conjugation) was “did not result in cell adhesive surface”, the “adhesion of HT-1080 cells” value ([1]; 10 μM peptide solution used for conjugation) was “resulted in an adhesive surface” and the “adhesion of HT-1080 cells” value ([1]; 100 μM peptide solution used for conjugation) was “resulted in an adhesive surface”. The “adhesion of HT-1080 cells” value [1, 4] was “adhered specifically”.

In the case of “GlyArgGlyAspSerProLys (GRGDSPK; Synthetic polypeptide including sequence derived from human fibronectin) [s-FN]”, the “support of culture of undifferentiated stem cells (AttoPhos)” value [2] is reported as “comparable in performance to the long fibronectin sequence”.

With “KGGGQKCIVQTTSWSQCSKS (cysteine pairing not given here) [SEQ ID NO:13]” the “serum-free attachment of HepG2/C3A cells compared with CellBind treated Topas” value [3] was “greater than CellBind® treated Topas™”.

In the case of KGGTWYKIAFQRNRK [SEQ ID NO:16], the “attachment of HepG2/C3A cells compared to Collagen I” value [3] is reported as “*CLS 01020 (Polypeptides exhibiting results better than 75% attachment compared to Collagen I (see FIG. 24) are marked with an asterix in Table 6)” and the “serum-free attachment of HepG2/C3A cells compared with CellBind treated Topas” value [3] is reported as “greater than CellBind® treated Topas™”.

For KYGKAFDITYVRLKF [SEQ ID NO:21], the “serum-free attachment of HepG2/C3A cells compared with CellBind treated Topas” value [3] was “greater than CellBind® treated Topas™”.

With KYGSETTVKYIFRLHE [SEQ ID NO:19] the “attachment of HepG2/C3A cells compared to Collagen I” value [3] was “*CLS 01035 (Polypeptides exhibiting results better than 75% attachment compared to Collagen I (see FIG. 24) are marked with an asterix in Table 6)” and the “serum-free attachment of HepG2/C3A cells compared with CellBind treated Topas” value [3] was “greater than CellBind® treated Topas™”.

From US8354274B2, “Synthetic surfaces for culturing cells in chemically defined media” (Geron Corporation, priority 2008, dated 2013)
